From patent US20110183904A1, “METHODS AND COMPOSITIONS FOR ALTERING BEHAVIOR ASSOCIATED WITH AUTISM SPECTRUM DISORDER” (The Children's Mercy Hospital, priority 2008, published 2011)
“Also recorded” adds a separate entry of the source.

Legend:
[1] = tested on: Gαs in murine spleen cells; experiment: Gαs expression in murine spleen cells exposed to OT (previous findings in this lab); format: cell-based; conditions: both sexes
[2] = tested on: Gαs mRNA in PBMCs; experiment: Gαs mRNA in PBMCs co-cultured with OT; format: cell-based, human
Description: (§1) Both Gαs and Gαq mRNA were measured after PBMCs were incubated with vehicle (untreated condition) and after co-culture with hormone. For some subjects, the PBMC quantity yielded insufficient mRNA for PCR analysis. Gαs PCR was completed on 10 ASD girls, 9 control girls, 10 ASD boys, and 9 control boys. Gαq PCR was completed on 10 ASD girls, 8 control girls, 10 ASD boys, and 9 control boys.
(§2) Samples were taken from the patients, as described in Example 1, and mRNA was isolated from cells exposed to oxytocin and analyzed for amount of mRNA expressing Gαs and Gαq.
(§3) PBMC isolation, hormone treatment and cell culture. PBMCs were isolated from heparinized blood using Histopaque 1077 (Sigma-Aldrich, St. Louis, Mo.). Briefly, 5 ml of blood was diluted 1:1 in PBS and carefully layered onto 3 ml of Histopaque 1077 in a 50 ml conical centrifuge tube. Tubes were centrifuged at 400 g for 30 min at RT. The buffy coat was removed from the tube and washed three times in complete RPMI without phenol red. Cell counts and viability were determined using Trypan blue. Cell viability was >95%. […]
(§4) RNA isolation and quantitation. […] RNA was examined by spectrophotometry and quantitated using the Ribogreen assay (Invitrogen, Carlsbad, Calif.). […] Ribogreen reagent (1:200) was added to samples and standards, and samples were read on a Bio-Tek FLx800 fluorescent plate reader. […]

[3] = tested on: Gαs mRNA and Gαq mRNA in PBMCs; experiment: G-protein mRNA (Gαs and Gαq) in PBMCs exposed to oxytocin; format: cell-based, human
Description: as §1, §2
PBMC isolation, hormone treatment and cell culture. PBMCs were isolated from heparinized blood using Histopaque 1077 (Sigma-Aldrich, St. Louis, Mo.). Briefly, 5 ml of blood was diluted 1:1 in PBS and carefully layered onto 3 ml of Histopaque 1077 in a 50 ml conical centrifuge tube. Tubes were centrifuged at 400 g for 30 min at RT. The buffy coat was removed from the tube and washed three times in complete RPMI without phenol red. Cell counts and viability were determined using Trypan blue. Cell viability was >95%. Resultant PBMC's were suspended in complete RPMI with 10% charcoal stripped, dilapidated fetal calf serum (FCS) (Invitrogen, Carlsbad, Calif.) and added in 1 ml aliquots to 12 well plate with vehicle and oxytocin (10 ^−7M, 10 ^−8M, and 10^−9M) in RPMI+10% charcoal stripped, dilapidated FCS. Cells were incubated overnight (18-24 hr) before wells were harvested and rinsed. Cell suspensions were centrifuged at 500 g for 10 min at RT, and supernatant was aspirated. Buffer RLT Plus from the RNeasy Mini Plus Kit (QIAgen, Valencia, Calif.) was added to the cell pellets before vortexing to lyse cells. Samples were stored at −80° C. before RNA purification and isolation.
RNA isolation and quantitation. Samples were thawed, vortexed, and placed in QIAshredder columns. Columns were centrifuged for 2 min at 15000 g. The homogenized lysate was transferred to a gDNA Eliminator spin column and centrifuged for 30 sec at 9000 g. Equal volumes of 70% ethanol were added to the eluent. The mixture was transferred to RNeasy spin columns and centrifuged for 15 sec at 9000 g. Columns were washed with Buffer RW1 and the Buffer RPE, centrifuging for 15 sec at 9000 g, each time discarding the eluent. Buffer RPE was again added and columns centrifuged for 2 min at 9000 g to dry the column. Columns were then centrifuged for 1 min at 15000 g. RNA was eluted with the addition of Nuclease-free water and spun for 1 min at 9000 g. RNA was examined by spectrophotometry and quantitated using the Ribogreen assay (Invitrogen, Carlsbad, Calif.). Samples were diluted 1:200. Standards of 0, 20, 100, 500, and 1000 ng/ml were made from E. coli ribosomal RNA in TE buffer. Ribogreen reagent (1:200) was added to samples and standards, and samples were read on a Bio-Tek FLx800 fluorescent plate reader. RNA was diluted in nuclease-free water to a final concentration of 150 ng/ml cDNA.
cDNA construction and one-step real-time RT-PCR. Reverse transcription was performed using the SuperScript II Reverse Transcription Kit (Invitrogen, Carlsbad, Calif.). First, any residual DNA was digested away with DNase I for 15 min, with DNase activity subsequently quenched with 25 mM EDTA at 65° C. for 15 min. 10 mM dNTP and 0.5 ug/ml oligo (dT) were added to DNase-treated samples at 65° C. for 5 min. […]

[4] = tested on: male university students; conditions: intra-nasally; cited from earlier work
[5] = tested on: Gαs and Gαq protein in PBMCs; experiment: G-protein expression (Gαs and Gαq) in PBMCs exposed to oxytocin (immunoblot); format: cell-based, human
Description: Membrane preparation for membrane-associated proteins. For protein studies, PBMC's were manipulated at 4° C., as previously described in Example 4. PBMC's were individually homogenized (1:30, wt/vol) in ice-cold 0.25 M sucrose and 50 mM Tris-HCL, (pH 7.6) in a Dounce homogenizer, centrifuged twice at 800×g for 5 min before centrifugation of the supernatants at 30,000×g for 60 min. The pellet was resuspended in assay buffer and used directly in the binding assay. Protein concentration was determined by BCA protein assay kit (Pierce, Rockford, Ill.) using bovine serum albumin (BSA) as a standard.
Immunoblot analysis for membrane-associated proteins. Total membrane proteins were prepared as for receptor assays above. Samples were electrophoresed in 12% Tris-HCl resolving gels and transferred to 0.45 μm nitrocellulose membranes (Bio-Rad, Hercules, Calif.) by electroblotting. […] After three washes in TBST, membranes were incubated for 1 h in TBST and 1% non fat dry milk with horseradish peroxidase conjugated 2° antibodies (Jackson Immunoresearch, West Grove, Pa.). Bands were visualized by exposure of the membranes to autoradiographic film (MidSci, St. Louis, Mo.). The membranes were then stripped with Restore™ Western Blot Stripping Buffer (Pierce, Rockford Ill.) for 30 min at 37° C. and reprobed for actin protein as an internal control. The bands were quantified using a densitometer (GE Healthcare, Piscataway, N.J.).
Specific G protein antibodies. Specific Gαs and Gαq/11 antibodies made in rabbit without cross reactivity to other G proteins were used at a 1:500 dilution and originated from Santa Cruz Biotechnology (Santa Cruz, Calif.).

[6] = tested on: adults with ASD; conditions: cited from earlier work
[7] = tested on: Gαq mRNA in PBMCs; experiment: Gαq mRNA in PBMCs co-cultured with OT; format: cell-based, human
Description: as §1, §2, §3, §4

[8] = children with ASD versus controls

Compound: CC[C@H](C)[C@@H]1NC(=O)[C@H](Cc2ccc(O)cc2)NC(=O)[C@@H](N)CSSC[C@@H](C(=O)N2CCC[C@H]2C(=O)N[C@@H](CC(C)C)C(=O)NCC(N)=O)NC(=O)[C@H](CC(N)=O)NC(=O)[C@H](CCC(N)=O)NC1=O [OT, Oxytocin]
- Gαs expression with exposure to OT [1]: c. Previous findings in this lab had found sex differences in Gαs in murine spleen cells as well as induction of Gαs expression in both sexes with exposure to OT,
- difference in Gαs mRNA expression between ASD and control PBMCs upon exposure to OT [2, 8]: no longer observed; also recorded: did not have the significantly increased Gαs mRNA
- sex differences in Gαs expression with OT exposure ([2]; girls versus boys, any group): not augmented
- mRNA pattern after exposure to oxytocin ([3]; autistic males, compared with control females before exposure): more feminine pattern
- mRNA levels after exposure to oxytocin ([3]; children with autism): not seen
- mRNA levels after exposure to oxytocin ([3]; females with autism): upward trend
- mRNA levels after exposure to oxytocin ([3]; males with autism): not observed
- mRNA levels after exposure to oxytocin ([3]; non-autistic patients): went up
- trust and prosocial behavior [4]: might increase trust and prosocial behavior
- protein expression after exposure to oxytocin ([5]; children with autism): not seen
- protein expression after exposure to oxytocin ([5]; females with autism): upward trend
- protein expression after exposure to oxytocin ([5]; males with autism): not observed
- protein expression after exposure to oxytocin ([5]; non-autistic patients): went up
- affective speech comprehension ([6]; OT infusion): improved
- severity and number of different types of repetitive behaviors ([6]; intravenous OT infusion): decreased
- difference in Gαq mRNA expression between ASD and control PBMCs upon exposure to OT [7, 8]: no longer significant
- sex differences in Gαq mRNA expression with OT ([7]; girls versus boys): not augmented
